Assays:
[1] = biological target: T1, human adrenergic-α2C receptor (Homo sapiens, UniProt P18825); test: Radioligand binding experiment for α2C-adrenoceptor ([3H]-raulwolscine competition, CHO cell membranes); conditions: [3H]raulwolscine 1 nM, membranes of CHO cells transfected with human α2C receptor; read-out: pIC50 α2C (converted)
T1 construct: expressed in transfected cells; membrane preparation
T1 sequence (P18825 1-462): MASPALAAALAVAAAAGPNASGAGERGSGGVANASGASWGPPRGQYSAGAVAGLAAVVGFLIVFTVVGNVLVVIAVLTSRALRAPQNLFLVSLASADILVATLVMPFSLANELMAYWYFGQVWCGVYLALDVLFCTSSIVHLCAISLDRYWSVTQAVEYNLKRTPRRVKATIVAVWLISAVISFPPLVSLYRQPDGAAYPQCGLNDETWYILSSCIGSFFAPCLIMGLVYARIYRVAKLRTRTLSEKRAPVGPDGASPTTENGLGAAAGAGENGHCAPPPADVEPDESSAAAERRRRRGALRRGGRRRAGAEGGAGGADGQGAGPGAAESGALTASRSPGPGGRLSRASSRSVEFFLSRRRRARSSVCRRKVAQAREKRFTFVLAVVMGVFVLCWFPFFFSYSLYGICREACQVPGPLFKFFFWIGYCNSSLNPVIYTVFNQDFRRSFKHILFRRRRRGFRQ
Method in brief: (§1)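 CHO cell membranes stably expressing human α2A, α2B or α2C receptor were incubated with 1 nM [3H]-raulwolscine ± test compound, 60 min at 25° C in glycylglycine 25 mM, pH 8.0, then filtered and counted. Nonspecific binding: 1 μM oxymetazoline (α2A, α2B) or 1 μM spiroxatrine (α2C). pIC50 from nonlinear regression of % total binding.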

[2] = biological target: T2, human adrenergic-α2A receptor (Homo sapiens, UniProt P08913); test: Radioligand binding experiment for α2A-adrenoceptor ([3H]-raulwolscine competition, CHO cell membranes); conditions: [3H]raulwolscine 1 nM, membranes of CHO cells transfected with human α2A receptor; read-out: pIC50 α2A (converted)
T2 construct: expressed in transfected cells; membrane preparation
T2 sequence (P08913 1-465): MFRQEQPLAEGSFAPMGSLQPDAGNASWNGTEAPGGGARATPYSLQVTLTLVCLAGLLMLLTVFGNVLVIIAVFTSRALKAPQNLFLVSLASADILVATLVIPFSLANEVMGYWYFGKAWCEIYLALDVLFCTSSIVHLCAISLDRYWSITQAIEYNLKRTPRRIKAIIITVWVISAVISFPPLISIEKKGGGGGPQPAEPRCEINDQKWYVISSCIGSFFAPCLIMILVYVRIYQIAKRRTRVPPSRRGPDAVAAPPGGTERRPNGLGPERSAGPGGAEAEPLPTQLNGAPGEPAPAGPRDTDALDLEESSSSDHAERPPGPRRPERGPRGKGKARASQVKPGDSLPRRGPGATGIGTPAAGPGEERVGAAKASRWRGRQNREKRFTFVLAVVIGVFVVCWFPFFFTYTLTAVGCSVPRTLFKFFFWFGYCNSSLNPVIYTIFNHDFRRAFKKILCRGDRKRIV
Method in brief: as §1

[3] = biological target: T3, human adrenergic-α2B receptor (Homo sapiens, UniProt P18089); test: Radioligand binding experiment for α2B-adrenoceptor ([3H]-raulwolscine competition, CHO cell membranes); conditions: [3H]raulwolscine 1 nM, membranes of CHO cells transfected with human α2B receptor; read-out: pIC50 α2B (converted)
T3 construct: expressed in transfected cells; membrane preparation
T3 sequence (P18089 1-450): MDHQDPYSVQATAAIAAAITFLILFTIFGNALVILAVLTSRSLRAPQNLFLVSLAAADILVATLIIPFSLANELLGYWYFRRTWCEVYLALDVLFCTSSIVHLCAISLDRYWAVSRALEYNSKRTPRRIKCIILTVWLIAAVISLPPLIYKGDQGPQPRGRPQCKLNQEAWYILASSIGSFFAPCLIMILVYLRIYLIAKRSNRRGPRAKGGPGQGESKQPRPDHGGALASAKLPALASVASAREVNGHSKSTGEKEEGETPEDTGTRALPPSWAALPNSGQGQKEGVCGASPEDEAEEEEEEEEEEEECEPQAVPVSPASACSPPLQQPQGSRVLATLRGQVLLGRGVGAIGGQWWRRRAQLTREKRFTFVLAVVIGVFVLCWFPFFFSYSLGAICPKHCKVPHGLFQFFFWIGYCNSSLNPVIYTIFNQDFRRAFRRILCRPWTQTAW
Method in brief: as §1

SMILES | IC50 [1] | IC50 [2] | IC50 [3]
COc1ccccc1C1CCN(C(C)C(C)n2ncn(-c3ccc(N4CCN(c5ccc(O)cc5)CC4)cc3)c2=O)C1 (stereo not drawn) [compound 55] | 15.8 nM | 1260 nM | 50.1 nM
O=c1n(-c2ccc(N3CCN(Cc4ccccc4)CC3)cc2)cnn1CC1CCN(CCOc2ccccc2)CC1 [compound 54] | 15.8 nM | 158 nM | 31.6 nM
COc1ccc(N2CCN(c3ccc(-n4cnn(C(C)C(C)NCCOc5ccccc5)c4=O)cc3)CC2)cc1 (stereo not drawn) [compound 10] | 15.8 nM | 631 nM | 501 nM
O=C1c2ccccc2C(=O)N1CCCn1ncn(CC2CCN(CCOc3ccccc3)CC2)c1=O [compound 82] | 1 nM | 12.6 nM | 15.8 nM

Now from value to compound:

IC50 [1] | IC50 [2] | IC50 [3] | SMILES
2.51 nM | 39.8 nM | 50.1 nM | O=c1n(CC2CCN(CCOc3ccccc3)CC2)cnn1CCN1CCCCC1 [compound 66]
7.94 nM | 158 nM | 7.94 nM | CN1CCN(c2ccc(-n3cnn(CC4CCN(CCOc5ccccc5)CC4)c3=O)cc2)CC1 [compound 51]
15.8 nM | 631 nM | 158 nM | COc1ccc(N2CCN(c3ccc(-n4cnn(CCNCCOc5ccccc5)c4=O)cc3)CC2)cc1 [compound 8]
2 nM | 39.8 nM | 39.8 nM | O=c1n(-c2ccc(NCCN3CCCC3)cc2)cnn1CCNCCOc1ccccc1 [compound 88]
3.98 nM | 100 nM | 126 nM | C/C(=C\c1ccccc1)CN1CCC(n2cnn(CCNCCOc3ccccc3)c2=O)CC1 [compound 29]
3.16 nM | 79.4 nM | 251 nM | O=c1n(-c2ccc3c(c2)CCN(CCN2CCCC2)C3)cnn1CCNCCOc1ccccc1 [compound 102]

Source: patent publication US20100029620A1, “SUBSTITUTED TRIAZOLINE, TETRAZOLONE AND IMIDAZOLONE DERIVATIVES FOR USE AS A MEDICINE” (JANSSEN PHARMACEUTICA N.V., priority 2004, published 2010)
